Results as given in patent US7820624B2, “Peptide ligands” (ICH Productions Limited, priority 2003, dated 2010).
“Also recorded” adds a separate entry of the source.

Legend:
[1] = test system: human peripheral blood monocytes; assay: LID transfection of monocytes, EGFP by FACS and cell death; assay type: cell-based; settings: for Percentages of cells transfected (ranking): FIG. 7a
Method: Lipopolyplex (LID) transfection complexes comprising lipid (L), peptide (in the form of a peptide derivative as described above) (I) and DNA (D) were prepared. The lipid component was Lipofectin or Lipofectamine 2000 (Invitrogen Ltd, Paisley, UK), the peptide component was a synthesized peptide A to F, 6 or 6J derivative, as described in Table 7 above, and the DNA was the plasmid pEGFP-N1 (Clontech, BD Biosciences, Palo Alto, Calif.)
component (Lipofectin or Lipofectamine 2000) was maintained at a constant proportion, by weight, relative to DNA of 0.75:1. Prior to making transfection complexes, in method A the lipid component was diluted to a concentration of 15 μg per ml, the peptide was prepared at 0.1 mg/ml and the DNA (plasmid pEGFP-N1, BD Biosciences, Cowley, UK, prepared using EndoFree plasmid kit, Qiagen Ltd, Crawley, UK) was at 10 μg per ml. All dilutions were performed with OptiMEM reduced serum tissue culture medium (Life Technologies Ltd, Paisley, UK). In method B prior to making transfection complexes the lipid component was diluted to a concentration of 30 μg per ml, the peptide was prepared at 0.1 mg/ml and the DNA (plasmid pEGFP-N1, BD Biosciences, Cowley, UK, prepared using EndoFree plasmid kit, Qiagen Ltd, Crawley, UK) was at […]. All dilutions were performed in serum-free RPMI.
Transfection complexes were made by mixing the components in the order 1) lipid (50 μl) then 2) peptide (70 μl) and finally 3) DNA (50 μl), then diluting with OptiMEM or serum free RPMI, as appropriate, to a concentration relative to the DNA component of 2 μg DNA per […] (OptiMEM) or 500 μl (RPMI).
For transfection of monocytes, peripheral blood monocytes were prepared using Lymphoprep centrifugation and CD14 bead selection as described in the method for preparation of monocyte derived dendritic cells in Example 1(v) above. These cells were then transfected as described as described for dendritic cells except that transfection of the monocytes (and also of day 3 or day 4 immature dendritic cells) was carried out in solution.

[2] = test system: human monocyte-derived immature dendritic cells; assay: Whole cell flow cytometry (FACS) of phage clone binding; settings: day 4 cells, several donors; versus phage clone with no insert
Method: 5×10^4 Dendritic cells and 2×10^11 of an individual purified phage clone were each blocked at 4° C. for 30 mins in 1 ml MBSA (2% Marvel, 5% BSA in PBS), with mixing on a turntable. The dendritic cells were spun down at 2000 rpm, a gentle centrifugation to pellet cells without lysing them, for 5 min at 4° C., and the pellet resuspended in the blocked phage solution. The mixture was held on ice for 30 min to allow the phage to bind, before spinning down the cells, removing the supernatant and washing the cells with 1 ml 1% BSA, 0.05% Tween20-PBS. The cells were spun again, the supernatant removed, and the cells fixed in 1 ml 1% paraformaldehyde for 30 min on ice. […] The cells were incubated with the antibody on ice for 30 min before spinning down, washing twice in 0.05% Tween20, 1% BSA PBS, resuspending in […] and measuring the percentage cells positive for FITC by FACS analysis.
Alternatively, 5×10^4 dendritic cells were mixed with 2×10^11 of individual phage clones as described for panning of the phage library. The mixture of phage and DC suspensions was kept on ice for 30 min before cells were centrifuged to remove the supernatant and washed with 1 ml 1% BSA, 0.05% Tween 20-PBS. The cells were again pelleted by centrifugation, then fixed for flow cytometry analysis by resuspending in 1 ml of 1% paraformaldehyde for 30 min on ice. […] The cells were incubated with the antibody on ice for 30 min then pelleted by centrifugation, washed twice in 0.05% Tween 20, 1% BSA PBS and resuspended in 200 μl PBS. The percentage of FITC-positive cells was determined by flow cytometry using a Epics XL flow cytometer (Beckman Coulter, High Wycombe, UK.).

[3] = test system: HMEC-1 cells; assay: LID transfection, luciferase reporter assay, HMEC-1; assay type: cell-based, human; settings: LID with lipofectin
Method: (§1) Transfection complexes comprising lipid, peptide and DNA were prepared. The lipid component was lipofectin (Invitrogen Ltd, Paisley, UK), the peptide component was a peptide A to F, 6 or 6J derivative, as described above, and the DNA was the plasmid pCILuc (Promega UK Ltd, Southampton). In the transfection complex, peptide to DNA charge ratios (+/−) were used at 3:1, 5:1 and 7:1. The lipid component was maintained at a constant proportion, by weight, relative to DNA of 0.75:1. Prior to making transfection complexes the lipid component was diluted to a concentration of 15 μg or 30 μg per ml, the peptide was prepared at 0.1 mg/ml and the DNA was at 40 μg per ml. All dilutions were performed with OptiMEM reduced serum tissue culture medium (Life Technologies). Transfection complexes were made by mixing of components in the order 1) lipid then 2) peptide and finally 3) DNA, then diluted with OptiMEM to a concentration relative to the DNA component of 0.25 μg DNA per […]
(§2) For transfection of these types of cell i.e. HMEC, HAEo-, N2a and HepG2, 1×10^4 cells were seeded overnight in 96 well plate. 200 μl of the suspension of the transfection complex prepared according to (b) above was added to each well. The suspension was applied to cells within 5 minutes of preparation. […]

[4] = test system: mouse dendritic cells; assay: Titration of phage clone binding to mouse dendritic cells; settings: 2×10^11 phage
Method: (§3) The dendritic cells were spun down at 2000 rpm, for 5 min at 4° C., and resuspended in the phage solution, allowing the phage to bind for 1 hour on ice with occasional mixing. The cells were then washed in PBS-Tween 20 (0.05%) three times before eluting phage with 166 μl TBS pH5.5. for 10 min on ice. The eluate was neutralised with […] Tris-HCl pH 8, the cells were spun down, and the supernatant removed to be stored as eluate. The cell pellet was resuspended in 200 μl of cell lysis buffer (30 mM Tris-HCl, 1 mM EDTA pH 8.0) for 1 hour on ice, with shaking. The cell debris was removed by spinning at 5000 rpm for 5 min and the supernatant recovered. The phage in the eluate and the cell lysate were titred by measuring plaque forming units (pfu) in E. coli ER2738 as described in the NEB C7C technical bulletin.
(§4) The titration of phage clone binding was carried out using human and mouse dendritic cells, with binding to plastic as a control. The human cells were obtained from donors as stated below.

[5] = Titration of phage clone binding to blocked plastic (control)
Method: as §3, §4

[6] = test system: N2a (Neuro2A) cells; assay: LID transfection, luciferase reporter assay, N2a; assay type: cell-based, mouse; settings: LID with lipofectin
Method: as §1, §2

Substance | Percentages of cells transfected (ranking) [1] | Percentage of cells positive for bound phage (FITC) by FACS [2] | Transfection efficiency (luciferase activity per mg protein) relative to peptide 6 [3] | Phage titre (pfu), mouse DCs [4] [pfu ×10^3] | Phage titre (pfu), plastic [5] [pfu ×10^3] | Transfection efficiency (luciferase activity per mg protein) relative to peptide 6 [6] | Percent positive for EGFP ([1]; combined with Lipofectin) [%]
APSNSTA (Synthetic peptide binding to dendritic cells) | highest percentages of cells transfected | binding to a higher percentage of cells than a phage clone bearing no insert; also recorded: bind to dendritic cells in highest amounts; also recorded: binding to dendritic cells in highest amounts | one and a half times that of peptide 6 | 480 | 480 | less than half that value | –
SHVKLNS (Synthetic peptide binding to dendritic cells) | highest percentages of cells transfected | binding to a higher percentage of cells than a phage clone bearing no insert; also recorded: bind to dendritic cells in highest amounts; also recorded: binding to dendritic cells in highest amounts | approximately equal to that seen with peptide 6 | 2120 | 720 | equal to those seen with peptide 6 | 6
